Patent US20090088376A1, “DENDRIMER BASED COMPOSITIONS AND METHODS OF USING THE SAME” (priority 2007, published 2009)

Legend:
[1] = mouse, in vivo
Description: (§1) Twice weekly, SCID mice with s.c. KB xenografts, starting on day 4 after tumor implantation, received via the tail vein an injection of either targeted or nontargeted conjugate containing methotrexate, a conjugate without methotrexate, free methotrexate, or saline as a control. The compounds were delivered in a 0.2 mL volume of saline per 20 g of mouse. The single dose of methotrexate delivered each time equaled 0.33 mg/kg. The higher doses of 1.67 and 3.33 mg/kg free methotrexate were also tested. The conjugates were delivered at equimolar concentration of methotrexate calculated based on the number of methotrexate molecules present in a nanoparticle. The conjugate without methotrexate was delivered at equimolar concentration of dendrimer. In the initial trial, six groups of mice with five mice in each group received up to 15 injections. In the follow-up trial, mice received up to 28 injections dependent on their survival. The body weights of the mice were monitored throughout the experiment as an indication of adverse effects of the drug. Histopathology of multiple organs was done at the termination of each trial and each time mouse had to be euthanized due to toxic effects or tumor burden. Tissues from lung, heart, liver, pancreas, spleen, kidney, and tumor were analyzed.
(§2) At each time point, a gross examination and histopathology of the liver, spleen, kidney, lung, and heart were done.

[2] = Toxicity of dendrimer conjugates and free methotrexate (body weight, histopathology)
Description: as §1, §2

[3] = tested on: s.c. human KB xenografts; experiment: Targeted drug delivery: tumor growth and survival; type: in vivo, SCID mice; conditions: for effect on tumor growth: first trial
Description: Tumor cell line. The KB human cell line, which overexpresses the folate receptor (See, e.g., Turek et al, J Cell Sci 106, 423 (1993)), was purchased from the American Type Tissue Collection (Manassas, Va.) and maintained in vitro at 37° C., 5% CO2 in folate-deficient RPMI 1640 supplemented with penicillin (100 units/mL), streptomycin (100 μg/mL), and 10% heat-inactivated fetal bovine serum. Before injection in the mice, the cells were harvested with trypsin-EDTA solution, washed, and resuspended in PBS. The cell suspension (5×10^6 cells in 0.2 mL) was injected s.c. into one flank of each mouse using a 30-gauge needle. In the biodistribution studies, the tumors were allowed to grow for 2 weeks until reaching ˜0.9 cm^3 in volume. The formula chosen to compute tumor volume was for a standard volume of an ellipsoid, where V=4/3π(½ length×½ width×½ depth). With an assumption that width equals depth and […], the formula used was V=½×length×width^2. Targeted drug delivery using conjugate injections was started on the fourth day after implantation of the KB cells.
Delivery of targeted nanoparticle therapeutic.
Statistical methods. Means, SD, and SE of the data were calculated. Differences between the experimental groups and the control groups were tested using Student's-Newman-Keuls' test and Ps<0.05 were considered significant.
Targeted drug delivery to tumor cells through the folate receptor. The efficacy of different doses of conjugates was tested on SCID CB-17 mice bearing s.c. human KB xenografts and was compared with equivalent and higher doses of free methotrexate. Mice were maintained on the folic acid-deficient diet for 3 weeks before injection of the KB tumor cells to achieve circulating levels of folic acid that approach those in human serum and to prevent down-regulation of folate receptors on tumor xenografts (See, Mathias et al., J Nucl Med 29, 1579 (1998)). Six groups of SCID mice with five mice in each group were injected s.c. on one flank with 5×10^6 KB cells in 0.2 mL PBS suspension. The highest total dose of G5-FI-FA-MTX therapeutic used equals 55.0 mg/kg and is equivalent to a 5.0 mg/kg total cumulative dose of free methotrexate (FIG. 29). The therapeutic dose of the conjugate was compared with three cumulative doses of free methotrexate equivalent to 33.3, 21.7, and 5.0 mg/kg accumulated in 10 to 15 injections based on mouse survival. Saline and the conjugate without methotrexate (G5-FT-FA) were used as controls.

[4] = tested on: SCC15 cells; experiment: XTT cell proliferation assay; type: cell-based, human; conditions: methotrexate 100 nM, G5-FI-EGF 100 nM, 3 days
Description: XTT assay. For cytotoxicity experiments, cells (2500 cells/well) were seeded in 96-well microtiter plates in DMEM containing 10% FCS. The cells were treated either with 100 nM each of the conjugates for 72 h. A calorimetric XTT assay, Roche Molecular Biochemicals (Indianapolis, Ind.) was performed following the vendor's protocol. After incubation with an XTT labeling mixture, microtiter plates were read on an ELISA reader (SYNERGY HT, BIOTEK) at 492 nm with the reference wavelength at 690 nm. Vehicle-treated cells were assigned a value of 100%.

[5] = tested on: KB cells; experiment: Inhibition of cell growth (XTT assay / total cell protein); type: cell-based, human
Description: Cell culture and treatment.
Evaluation of dendrimer cytotoxicity. Cell growth was determined by assay of the total protein in lysates of treated cells using a bicinchoninic acid reagent (PIERCE, and by XTT assay, using a kit from Roche.
Because the binding of the conjugate to KB cells reaches maximal uptake within 1 h (Quintana et al, 2002. Pharmaceutical Research 19: 1310-1316.), the effect of the G5-FI-FA-MTX on cell growth was initially tested by pre-incubation of cells with the conjugate for 1 h, followed by incubation in a drug-free medium for 5 d. […] When the cells were pre-incubated with dendrimers for 4 h, there was a modest decrease of about 10% in cell growth as determined by XTT assay. The cytotoxicity measurements were therefore done by incubation with the dendrimer for a minimum of 24 h, a pre-incubation time period shown to induce significant cytotoxicity.
Time course and dose dependent inhibition of cell growth. Previous studies have shown that MTX-induced cytotoxicity is detectable in vitro only if the medium is completely deprived of FA (See, e.g., Sobrero & Bertino, Int. J. Cell Cloning 4, 51 (1986)). The effect of the trifunctional dendrimers on cell growth was tested in cells incubated in a FA-deficient medium. Cells were treated with 300 nM conjugates (equivalent of 1500 nM MTX) or 1500 nM free MTX for 1-4 days, and cell proliferation was determined by estimation of cellular protein content. Cells were treated for 2 days with different concentrations of the conjugates or free MTX (the conjugate concentration is given as MTX equivalents, with 5 MTX per dendrimer molecule). KB cells which express high and low FAR were incubated with 30 nM of the dendrimers for 1 hr at 37° C., rinsed, and the fluorescence of cells was determined by flow cytometric analysis (See. e.g., FIG. 21, left panel). Pre-incubation with 50 µM free FA for 30 min totally prevents cellular binding and uptake of the polymer conjugates (See. e.g., FIG. 21, left panel).
The inhibition of cell growth induced by the conjugates was also tested by XTT assay which is based on the conversion of XTT to formazan by the active mitochondria of live cells (See, e.g., Roehm et al, J Immunol Methods 142, 257 (1991)).

## CN(Cc1cnc2nc(N)nc(N)c2n1)c1ccc(C(=O)N[C@@H](CCC(=O)O)C(=O)O)cc1 [MTX, methotrexate]
[1]
  histopathology of the liver: advanced liver lesions, collections of inflammatory cells, and periportal inflammation
[2]; cumulative doses 33.3 and 21.7 mg/kg
  day of trial by which doses became lethal: 32 to 36 days
[2]; total accumulated dose equivalent to 5.0 mg/kg free methotrexate
  toxicity: nor free methotrexate at the same dose were toxic
[3]; cumulative 33.3 and 21.7 mg/kg
  effect on tumor growth: affecting tumor growth
[3]; dose equivalent to 5.0 mg/kg cumulative methotrexate (or equimolar dendrimer)
  effect on tumor growth: no effect on tumor growth
[3]; second 99-day trial
  day of trial by which all mice died: ≤ 66 days
  survivors at the termination of the trial: no mice surviving
[4]
  inhibition of cell growth in G5-FI-EGF-treated cells: inhibited cell growth in the G5-FI-EGF-treated cells to a greater extent than its inhibition of control cells
[5]; XTT assay, 1, 2 or 3 days
  inhibition of cell growth: time-dependent cytotoxicity
[5]; equimolar MTX, below 1 μM
  growth inhibition of free MTX compared with conjugate: higher than with the equimolar concentrations of MTX in the G5-FITC-FA-MTX

## Nc1nc2ncc(CNc3ccc(C(=O)N[C@@H](CCC(=O)O)C(=O)O)cc3)nc2c(=O)[nH]1 [FA, folic acid]
[5]; 150 nM FA, 150 nM MTX, 24 h then 6 d fresh medium, total cell protein
  reversal by free FA of growth-arrest caused by MTX: almost completely reversed
[5]; 50 μM FA with MTX or G5-FITC-FA-MTX 24 h, then 5 days, XTT
  increase of cell growth above control cells by excess free FA: 20%
